This is an account of results in US9126999B2, “Tetrahydropyrazolopyrimidine compounds” (EISAI R&D MANAGEMENT CO., LTD., priority 2012, dated 2015).

One assay deals with Human TLR4 (Homo sapiens, UniProt O00206). Kind of assay: HEK-293 NF-kappaB luciferase reporter assay, LPS stimulus. Format: cell-based. The conditions noted are these: ligand LPS, analyte NFkB-luciferase. Further details: engineered to stably and individually express human TLR4, TLR7 or TLR9 full-length ORF cDNAs; expressed in transfected cells; host or cells: HEK-293 (ATCC) with ELAM-1 NF-kappaB luciferase reporter. An excerpt:
(§1) In vitro pharmacology: HEK-293 cells (ATCC) were engineered to stably express a NF-kappaB transcription factor inducible E-selectin (ELAM-1) luciferase reporter derived from the plasmid pGL3 (Promega) containing base pairs −2241 bp to −254 bp from the promoter of the human E-selectin gene (Accession No. NM_000450). These cells were then subsequently engineered to stably and individually express human TLR4, TLR7 or TLR9 full-length ORF cDNAs. Human TLR4 cDNA (Accession No. NM_138554) was cloned into pcDNA 3.0 expression vector (Invitrogen). TLR4 transfected cells were also engineered to express human MD-2 co-receptor [MD-2 cDNA (Accession No. NM_015364) was cloned into the pEF-BOS vector] and were supplemented with 10 nM soluble CD14 (R&D Systems) in the media to optimize LPS responsiveness. Human TLR9 cDNA (Accession No. NM_017442) was cloned into the pBluescript II KS vector (Agilent). Human TLR7 cDNA (Accession No. NM_016562) was obtained from OriGene. HEK-293 cells stably expressing human TLR8 (Accession No. NM_138636) or mouse TLR7 (Accession No. NM_133211) were purchased from InvivoGen and were then stably transfected with pNiFty2(NF-kappaB)-luciferase reporter plasmid (InvivoGen). […]

In the next assay the target is T1, Human TLR9 (Homo sapiens, UniProt Q9NR96).
T1 sequence (Q9NR96 26-1032): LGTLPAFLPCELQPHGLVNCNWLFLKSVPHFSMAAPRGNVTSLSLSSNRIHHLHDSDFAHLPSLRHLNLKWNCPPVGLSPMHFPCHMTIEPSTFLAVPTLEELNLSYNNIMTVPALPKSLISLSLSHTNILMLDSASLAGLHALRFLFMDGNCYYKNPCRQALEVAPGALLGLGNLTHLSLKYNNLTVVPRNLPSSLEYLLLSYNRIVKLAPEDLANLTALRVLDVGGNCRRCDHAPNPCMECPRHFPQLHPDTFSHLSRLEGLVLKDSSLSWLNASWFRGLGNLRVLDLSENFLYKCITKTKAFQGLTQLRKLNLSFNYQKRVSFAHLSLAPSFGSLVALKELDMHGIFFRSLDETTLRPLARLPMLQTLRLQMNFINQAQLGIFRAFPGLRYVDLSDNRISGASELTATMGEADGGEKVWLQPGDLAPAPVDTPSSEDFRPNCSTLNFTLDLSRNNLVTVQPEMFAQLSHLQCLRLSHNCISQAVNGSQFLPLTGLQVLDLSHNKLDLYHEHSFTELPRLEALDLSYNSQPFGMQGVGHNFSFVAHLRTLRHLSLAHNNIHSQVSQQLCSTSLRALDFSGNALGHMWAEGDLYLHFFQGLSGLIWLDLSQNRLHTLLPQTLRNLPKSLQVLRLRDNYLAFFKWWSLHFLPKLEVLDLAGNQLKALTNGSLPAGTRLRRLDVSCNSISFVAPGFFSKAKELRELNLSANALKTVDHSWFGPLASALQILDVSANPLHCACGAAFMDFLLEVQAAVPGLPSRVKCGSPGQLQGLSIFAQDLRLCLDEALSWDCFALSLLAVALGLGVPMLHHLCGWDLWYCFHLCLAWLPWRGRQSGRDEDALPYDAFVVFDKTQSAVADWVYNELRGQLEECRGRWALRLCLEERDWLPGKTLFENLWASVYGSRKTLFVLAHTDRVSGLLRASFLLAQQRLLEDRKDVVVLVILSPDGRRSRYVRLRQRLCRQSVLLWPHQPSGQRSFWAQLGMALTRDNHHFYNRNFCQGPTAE
Kind of assay: HEK-293 NF-kappaB luciferase reporter assay, CpG-ODN stimulus. The conditions noted are these: ligand CpG-ODN, analyte NFkB-luciferase. The class given is cell-based. Further details: engineered to stably and individually express human TLR4, TLR7 or TLR9 full-length ORF cDNAs; expressed in transfected cells; host or cells: HEK-293 (ATCC) with ELAM-1 NF-kappaB luciferase reporter.
From the text: as §1
Background: In a reporter assay the amount or activity of a reporter protein is the signal.

Sequence of Human TLR4 (O00206 24-839): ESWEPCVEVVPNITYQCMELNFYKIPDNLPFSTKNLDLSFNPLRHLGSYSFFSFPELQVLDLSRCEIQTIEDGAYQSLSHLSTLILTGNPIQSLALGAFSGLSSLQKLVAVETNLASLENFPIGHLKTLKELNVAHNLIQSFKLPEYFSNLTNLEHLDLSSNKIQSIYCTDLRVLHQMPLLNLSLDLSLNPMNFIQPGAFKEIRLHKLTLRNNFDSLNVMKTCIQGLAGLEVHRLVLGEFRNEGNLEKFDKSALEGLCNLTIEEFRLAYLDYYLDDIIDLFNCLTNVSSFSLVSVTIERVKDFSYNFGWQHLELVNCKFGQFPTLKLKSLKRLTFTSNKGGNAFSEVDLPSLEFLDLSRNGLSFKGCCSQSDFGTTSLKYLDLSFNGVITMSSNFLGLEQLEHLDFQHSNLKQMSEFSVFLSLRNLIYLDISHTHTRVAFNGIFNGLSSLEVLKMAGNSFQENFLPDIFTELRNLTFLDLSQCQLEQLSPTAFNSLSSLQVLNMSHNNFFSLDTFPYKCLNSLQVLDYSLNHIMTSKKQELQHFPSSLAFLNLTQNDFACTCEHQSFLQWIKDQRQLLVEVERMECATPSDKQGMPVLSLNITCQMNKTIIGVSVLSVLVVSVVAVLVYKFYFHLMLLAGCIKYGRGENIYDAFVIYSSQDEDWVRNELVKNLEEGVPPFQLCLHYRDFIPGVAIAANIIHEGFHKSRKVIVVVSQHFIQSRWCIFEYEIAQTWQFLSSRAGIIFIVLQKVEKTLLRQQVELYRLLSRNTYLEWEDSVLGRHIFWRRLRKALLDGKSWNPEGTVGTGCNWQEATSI
Sequence of Human TLR4 (Q9Y6Y9 19-160 partner): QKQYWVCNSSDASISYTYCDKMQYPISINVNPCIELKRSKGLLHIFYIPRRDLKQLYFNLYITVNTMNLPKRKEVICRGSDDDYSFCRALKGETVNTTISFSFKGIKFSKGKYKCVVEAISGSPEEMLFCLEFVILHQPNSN

As for `COc1ccc([C@@H]2C[C@H](C(F)(F)F)n3nc(-c4ccc(C(=O)N5CCNCC5)cc4)cc3N2)cc1OC` [ER-892887, (4-((5S,7R)-5-(3,4-dimethoxyphenyl)-7-(trifluoromethyl)-4,5,6,7-tetrahydropyrazolo[1,5-a]pyrimidin-2-yl)phenyl)(piperazin-1-yl)methanone], the 50% inhibitory concentration (IC50) on Human TLR4 and against Human TLR9 was > 10 µM each time.

Broadly, the IC50 is the concentration that gives 50% inhibition. A high value points to weaker potency.
